Measured values taken from US12569452B2, “Ophthalmic compositions comprising F6H8” (NOVALIQ GMBH, priority 2017, dated 2026).

How the values were obtained:
[1] = Ocular tissue distribution after multiple topical ocular doses of 14C-F6H8, liquid scintillation counting; assay type: in vivo, female Dutch Belted rabbits; conditions: for Mean concentration of radioactivity, Conjunctiva (bulbar) / Mean concentration of radioactivity, Conjunctiva (palpebral) / Mean concentration of radioactivity, Cornea / Mean concentration of radioactivity, Lacrimal gland (accessory) / Mean concentration of radioactivity, Lacrimal gland (main) / Mean concentration of radioactivity, Meibomian glands / Mean concentration of radioactivity, Sclera (anterior) / Mean concentration of radioactivity, Tears: multiple dose (nine doses)
Description: Animals are not fasted prior to dose administration. All animals receive single 35 μL-drops of the dose formulation in each eye, with the right eye dosed first. All collection times are based on the time of dosing of the second (left) eye for the last dose, as applicable.
After the dose is administered, the eye is allowed to close naturally. Each animal is then restrained for approximately 1 minute to prevent rubbing of the eyes.
Tears and Ocular Tissue Collection: Tears are collected from two animals per group per time point at 0.25, 0.5, 1, 2, 4, 8, and 24 hours post-dose following the single dose or the last dose of the multiple dose scheme. Tears are collected using Tear Flo Test (TFT) strips that were dye free. One strip of paper is used for each eye for each time point. Following collection, the tube containing the strip is placed on dry ice or stored at approximately −70° C. until analysed.
At the time of sacrifice, both eyes are enucleated and ocular tissues including Aqueous humour, Conjunctiva (bulbar), Conjunctiva (palpebral), Lacrimal gland (accessory), Lacrimal gland (main), Meibomian glands (tarsal plate), Choroid-Retinal pigmented epithelium (Choroid-RPE), Cornea, Iris-ciliary body (ICB), Retina, Sclera (anterior), Sclera (posterior), Vitreous humour are collected.
Radioanalysis: All samples are analyzed for radioactivity in a Model 2900TR liquid scintillation counter (Packard Instrument Company) for at least 5 minutes or 100,000 counts, utilizing Ultima Gold XR or Hionic Fluor scintillation cocktails (Perkin Elmer). Each sample is homogenized before radioanalysis, unless the entire sample is used for analysis. All samples are analyzed in duplicate if sample size allows.
For Conjunctiva (bulbar and palpebral), Cornea, Lacrimal gland (main), Meibomian glands, Retina, and Sclera (anterior and posterior), each sample is digested in 2M sodium hydroxide in ethanol (80:20, v:v) and maintained at room temperature or in an oven set no higher than 30° C. until dissolved. Scintillation cocktail is added, and the samples are shaken and analyzed directly by LSC.
For Lacrimal gland (accessory), each sample is digested in 2M sodium hydroxide in ethanol (80:20, v:v) and maintained at room temperature or in an oven set no higher than 30° C. until dissolved. The sample is homogenized by mixing and duplicate weighed aliquots are analyzed directly by LSC.
For Tears, at least 10 mL of Ultima Gold XR scintillation cocktail is added, and the samples are shaken and analyzed by LSC.
Multiple topical ocular administration: The rabbits receive twice daily doses (approximately 12 hours apart±20 minutes) of 35 μl ^14C—F6H8 administered to both eyes for four consecutive days, and on the fifth day receive a single dose in the morning to both eyes (a total of nine doses). The administered dose level at each dosing occasion is approximately 47 mg/eye, equivalent to […]. Following the last dose on Study Day 5, two animals per time point are sacrificed at 0.25, 0.5, 1, 2, 4, 8, and 24 hours post-dose in a sparse sampling profile. Ocular tissues (including tears collected prior to sacrifice) are collected from all animals at sacrifice.

[2] = Quantitative autoradiography of whole head after single topical ocular dose of 14C-F6H8; assay type: in vivo, female Dutch Belted rabbits; conditions: single dose 35 μl
Excerpt: Quantitative Autoradiography: Animals are euthanized with sodium pentobarbital and blood is collected via cardiac puncture. Immediately after blood collection, the animals were frozen for quantitative autoradiography. The frozen heads are embedded in chilled carboxymethyl cellulose and frozen into blocks. Appropriate sections are collected on adhesive tape at […], in a Leica CM 3600 cryomicrotome. Mounted sections are exposed for 4 days on phosphor imaging screens along with fortified blood standards for subsequent calibration of the image analysis software and subsequently scanned using a Typhoon scanner. The autoradiographic standard image data are sampled using InterFocus Imaging Ltd. MCID™ Analysis software to create a calibrated standard curve. Specified tissues and fluids are analysed. Tissue concentrations are interpolated from each standard curve as nanocuries/g and then converted to ng equivalents/g on the basis of the test article specific activity.
The highest concentrations (>10000 ng equivalents ^14C—F6H8/g) are found in the anterior tissues in the order eyelid margin (443000)>internal eyelid (171000)>cornea (33500). Other tissues with high concentrations are the external eyelid skin, nasolacrimal duct, and nasal turbinates.

[3] = multiple dose, between 0.25 and 4 hours post-dose

Substance: ^14C-1-Perfluorohexyloctane [^14C-F6H8]
- Mean concentration of radioactivity, Conjunctiva (bulbar) ([1]; 0.25 h after last dose): 8290 ng Equivalents ^14C-F6H8/g
- Mean concentration of radioactivity, Conjunctiva (palpebral) ([1]; 0.25 h after last dose): 14000 ng Equivalents ^14C-F6H8/g
- Mean concentration of radioactivity, Cornea ([1]; 0.25 h after last dose): 20600 ng Equivalents ^14C-F6H8/g
- Mean concentration of radioactivity, Lacrimal gland (accessory) ([1]; 0.25 h after last dose): 7120 ng Equivalents ^14C-F6H8/g
- Mean concentration of radioactivity, Lacrimal gland (main) ([1]; 0.25 h after last dose): 7090 ng Equivalents ^14C-F6H8/g
- Mean concentration of radioactivity, Meibomian glands ([1]; 0.25 h after last dose): 222000 ng Equivalents ^14C-F6H8/g
- Mean concentration of radioactivity, Sclera (anterior) ([1]; 0.25 h after last dose): 3550 ng Equivalents ^14C-F6H8/g
- Mean concentration of radioactivity, Tears ([1]; 0.25 h after last dose): 2330000 ng Equivalents ^14C-F6H8/g
- Mean concentration of radioactivity, Conjunctiva (bulbar) ([1]; 0.5 h after last dose): 5280 ng Equivalents ^14C-F6H8/g
- Mean concentration of radioactivity, Conjunctiva (palpebral) ([1]; 0.5 h after last dose): 11900 ng Equivalents ^14C-F6H8/g
- Mean concentration of radioactivity, Cornea ([1]; 0.5 h after last dose): 21000 ng Equivalents ^14C-F6H8/g
- Mean concentration of radioactivity, Lacrimal gland (accessory) ([1]; 0.5 h after last dose): 8190 ng Equivalents ^14C-F6H8/g
- Mean concentration of radioactivity, Lacrimal gland (main) ([1]; 0.5 h after last dose): 8140 ng Equivalents ^14C-F6H8/g
- Mean concentration of radioactivity, Meibomian glands ([1]; 0.5 h after last dose): 145000 ng Equivalents ^14C-F6H8/g
- Mean concentration of radioactivity, Sclera (anterior) ([1]; 0.5 h after last dose): 2650 ng Equivalents ^14C-F6H8/g
- Mean concentration of radioactivity, Tears ([1]; 0.5 h after last dose): 872000 ng Equivalents ^14C-F6H8/g
- Mean concentration of radioactivity, Conjunctiva (bulbar) ([1]; 1 h after last dose): 4440 ng Equivalents ^14C-F6H8/g
- Mean concentration of radioactivity, Conjunctiva (palpebral) ([1]; 1 h after last dose): 11300 ng Equivalents ^14C-F6H8/g
- Mean concentration of radioactivity, Cornea ([1]; 1 h after last dose): 27600 ng Equivalents ^14C-F6H8/g
- Mean concentration of radioactivity, Lacrimal gland (accessory) ([1]; 1 h after last dose): 4770 ng Equivalents ^14C-F6H8/g
- Mean concentration of radioactivity, Lacrimal gland (main) ([1]; 1 h after last dose): 4610 ng Equivalents ^14C-F6H8/g
- Mean concentration of radioactivity, Meibomian glands ([1]; 1 h after last dose): 92900 ng Equivalents ^14C-F6H8/g
- Mean concentration of radioactivity, Sclera (anterior) ([1]; 1 h after last dose): 3920 ng Equivalents ^14C-F6H8/g
- Mean concentration of radioactivity, Tears ([1]; 1 h after last dose): 742000 ng Equivalents ^14C-F6H8/g
- Mean concentration of radioactivity, Conjunctiva (bulbar) ([1]; 2 h after last dose): 3970 ng Equivalents ^14C-F6H8/g
- Mean concentration of radioactivity, Conjunctiva (palpebral) ([1]; 2 h after last dose): 7510 ng Equivalents ^14C-F6H8/g
- Mean concentration of radioactivity, Cornea ([1]; 2 h after last dose): 15900 ng Equivalents ^14C-F6H8/g
- Mean concentration of radioactivity, Lacrimal gland (accessory) ([1]; 2 h after last dose): 5140 ng Equivalents ^14C-F6H8/g
- Mean concentration of radioactivity, Lacrimal gland (main) ([1]; 2 h after last dose): 5040 ng Equivalents ^14C-F6H8/g
- Mean concentration of radioactivity, Meibomian glands ([1]; 2 h after last dose): 100000 ng Equivalents ^14C-F6H8/g
- Mean concentration of radioactivity, Sclera (anterior) ([1]; 2 h after last dose): 2080 ng Equivalents ^14C-F6H8/g
- Mean concentration of radioactivity, Tears ([1]; 2 h after last dose): 832000 ng Equivalents ^14C-F6H8/g
- Mean concentration of radioactivity, Conjunctiva (bulbar) ([1]; 4 h after last dose): 3840 ng Equivalents ^14C-F6H8/g
- Mean concentration of radioactivity, Conjunctiva (palpebral) ([1]; 4 h after last dose): 6920 ng Equivalents ^14C-F6H8/g
- Mean concentration of radioactivity, Cornea ([1]; 4 h after last dose): 17500 ng Equivalents ^14C-F6H8/g
- Mean concentration of radioactivity, Lacrimal gland (accessory) ([1]; 4 h after last dose): 9280 ng Equivalents ^14C-F6H8/g
- Mean concentration of radioactivity, Lacrimal gland (main) ([1]; 4 h after last dose): 8890 ng Equivalents ^14C-F6H8/g
- Mean concentration of radioactivity, Meibomian glands ([1]; 4 h after last dose): 70300 ng Equivalents ^14C-F6H8/g
- Mean concentration of radioactivity, Sclera (anterior) ([1]; 4 h after last dose): 3470 ng Equivalents ^14C-F6H8/g
- Mean concentration of radioactivity, Tears ([1]; 4 h after last dose): 103000 ng Equivalents ^14C-F6H8/g
- Mean concentration of radioactivity, Conjunctiva (bulbar) ([1]; 8 h after last dose): 2970 ng Equivalents ^14C-F6H8/g
- Mean concentration of radioactivity, Conjunctiva (palpebral) ([1]; 8 h after last dose): 5160 ng Equivalents ^14C-F6H8/g
- Mean concentration of radioactivity, Cornea ([1]; 8 h after last dose): 22000 ng Equivalents ^14C-F6H8/g
- Mean concentration of radioactivity, Lacrimal gland (accessory) ([1]; 8 h after last dose): 5100 ng Equivalents ^14C-F6H8/g
- Mean concentration of radioactivity, Lacrimal gland (main) ([1]; 8 h after last dose): 4650 ng Equivalents ^14C-F6H8/g
- Mean concentration of radioactivity, Meibomian glands ([1]; 8 h after last dose): 52900 ng Equivalents ^14C-F6H8/g
- Mean concentration of radioactivity, Sclera (anterior) ([1]; 8 h after last dose): 2650 ng Equivalents ^14C-F6H8/g
- Mean concentration of radioactivity, Tears ([1]; 8 h after last dose): 32200 ng Equivalents ^14C-F6H8/g
- Mean concentration of radioactivity, Conjunctiva (bulbar) ([1]; 24 h after last dose): 2750 ng Equivalents ^14C-F6H8/g
- Mean concentration of radioactivity, Conjunctiva (palpebral) ([1]; 24 h after last dose): 4410 ng Equivalents ^14C-F6H8/g
- Mean concentration of radioactivity, Cornea ([1]; 24 h after last dose): 16200 ng Equivalents ^14C-F6H8/g
- Mean concentration of radioactivity, Lacrimal gland (accessory) ([1]; 24 h after last dose): 3480 ng Equivalents ^14C-F6H8/g
- Mean concentration of radioactivity, Lacrimal gland (main) ([1]; 24 h after last dose): 3630 ng Equivalents ^14C-F6H8/g
- Mean concentration of radioactivity, Meibomian glands ([1]; 24 h after last dose): 45500 ng Equivalents ^14C-F6H8/g
- Mean concentration of radioactivity, Sclera (anterior) ([1]; 24 h after last dose): 2410 ng Equivalents ^14C-F6H8/g
- Mean concentration of radioactivity, Tears ([1]; 24 h after last dose): 46800 ng Equivalents ^14C-F6H8/g
- Highest mean concentration, Meibomian glands [1, 3]: 222000 ng equivalents ^14C—F6H8/g
- Highest mean concentration, accessory lacrimal gland [1, 3]: 9280 ng equivalents ^14C—F6H8/g
- Highest mean concentration, bulbar conjunctiva [1, 3]: 8290 ng equivalents ^14C—F6H8/g
- Highest mean concentration, cornea [1, 3]: 27600 ng equivalents ^14C—F6H8/g
- Highest mean concentration, main lacrimal gland [1, 3]: 8890 ng equivalents ^14C—F6H8/g
- Highest mean concentration, palpebral conjunctiva [1, 3]: 14000 ng equivalents ^14C—F6H8/g
- Highest mean concentration, tears [1, 3]: 2330000 ng equivalents ^14C—F6H8/g
- Ocular tissue concentrations, multiple compared to single topical ocular administration ([1]; multiple vs single dose scheme): higher concentrations
- Highest concentration, cornea [2]: 33500 ng equivalents ^14C—F6H8/g
- Highest concentration, eyelid margin [2]: 443000 ng equivalents ^14C—F6H8/g
- Highest concentration, internal eyelid [2]: 171000 ng equivalents ^14C—F6H8/g
